Reference: patent US7393939B2, “Placental organic anion transporter and gene thereof” (Japan Science and Technology Corporation, priority 1999, dated 2008)
“Also recorded” adds a separate entry of the source. Structures can show the parent of a compound that is named as a salt. Where two headings read alike, the source gives them in different places.

Experiments:
Assay type in all cases: cell-based
OAT4 [1] = biological target: T1, OAT4 (Homo sapiens, UniProt Q9NSA0); experiment: Inhibition experiment: ^3H-estrone sulfate uptake in OAT4 cRNA-injected oocytes with various compounds; settings: 50 nM ^3H-estrone sulfate; 500 μM unlabeled compound; FIG. 4
T1 construct: cRNA (an RNA complementary to cDNA) was prepared from a plasmid containing this cDNA; expressed in transfected cells; host or cells: Xenopus laevis oocytes injected with OAT4 cRNA (transcribed in vitro with T7 RNA polymerase from plasmid pZL holding the hOAT4 cDNA)
T1 sequence (Q9NSA0 1-550): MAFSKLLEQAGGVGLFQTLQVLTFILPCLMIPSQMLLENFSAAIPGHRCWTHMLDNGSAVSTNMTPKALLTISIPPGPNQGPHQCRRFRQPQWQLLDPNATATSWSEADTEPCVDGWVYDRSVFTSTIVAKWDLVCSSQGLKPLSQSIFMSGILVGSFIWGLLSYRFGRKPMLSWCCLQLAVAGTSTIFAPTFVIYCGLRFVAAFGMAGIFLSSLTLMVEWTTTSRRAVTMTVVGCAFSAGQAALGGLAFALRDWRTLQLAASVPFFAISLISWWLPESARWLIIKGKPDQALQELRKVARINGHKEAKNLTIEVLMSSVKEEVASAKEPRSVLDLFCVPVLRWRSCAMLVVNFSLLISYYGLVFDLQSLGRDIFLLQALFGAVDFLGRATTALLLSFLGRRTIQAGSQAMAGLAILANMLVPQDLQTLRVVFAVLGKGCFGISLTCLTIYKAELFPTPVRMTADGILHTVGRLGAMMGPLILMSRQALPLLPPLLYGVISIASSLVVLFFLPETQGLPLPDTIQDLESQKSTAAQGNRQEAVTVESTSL
Method: Further, in order to investigate the substrate selectivity of OAT4 of the present invention, various ionic substances were added to an incorporation experimental system of ^3H-estrone sulfate and the influence thereby was tested (Inhibition Experiment).
In order to further investigate the substrate selectivity of OAT4, various anionic substances were added to a system in an uptake experiment system of ^3H-estrone sulfate in oocytes into which OAT4 cRNA was injected and the influence was investigated (inhibition experiment). An uptake experiment of ^3H-estrone sulfate was carried out according to the above-mentioned method using oocytes into which OAT4 cRNA was injected. Uptake of 50 nM ^3H-estrone sulfate was measured in the presence and absence of 500 μM of various compounds (unlabeled).

OAT4 [2] = biological target: T1, OAT4; experiment: Inhibitory test of OAT4 by sulfate conjugates and glucuronic acid conjugates; settings: FIG. 5
OAT4 [3] = biological target: T1, OAT4
Method: In order to confirm that the resulting OTA4 has an organic anion transport activity, cRNA (an RNA complementary to cDNA) was prepared from a plasmid containing this cDNA according to a method of Sekine, et al. (Sekine, T., et al., J. Biol. Chem., volume 272, pages 18526-18529, 1997) and injected into oocytes of Xenopus laevis and the oocytes were subjected to an incorporation experiment for various organic anions and organic cations which were labeled with radioisotopes.
From an OAT4 cDNA-containing plasmid was prepared cRNA (an RNA complementary to cDNA) in vitro using a T7 RNA polymerase (Sekine, T., et al., J. Biol. Chem., volume 272, pages 18526-18529, 1997).
The resulting cRNA was injected into oocytes of Xenopus laevis according to the already-reported method (Sekine, T., et al., J. Biol. Chem., volume 272, pages 18526-18529, 1997) and the oocytes were subjected to an incorporation experiment using various labeled organic anions and organic cations.

OAT4 [4] = biological target: T1, OAT4; experiment: Cation (sodium) dependency of estrone sulfate transport via OAT4 in oocytes; settings: extracellular sodium substituted with lithium and choline; FIG. 3
Method: Dependency of the OAT4 of the present invention on sodium in an organic anion transport was investigated. Incorporation of estrone sulfate by OAT4 was tested in the presence of various extracellular cations.
Sodium-dependency of OAT4 in an organic anion transport was investigated. Even when extracellular sodium was substituted with lithium and choline, there was no change in the transport of estrone sulfate via OAT4 and it was clarified that OAT4 is an organic anion transporter which is independent on extracellular sodium (refer to FIG. 3).

OAT4 [5] = biological target: T1, OAT4; experiment: Michaelis-Menten kinetic test of organic anion transport by OAT4 in oocytes injected with OAT4 cRNA; settings: FIG. 2
Method: After that, the above-mentioned oocytes into which OAT4 cRNA was injected was used for checking the changes in the amount of estrone sulfate, dehydroepiandrosterone sulfate and ochratoxin A incorporated by OAT4 of the present invention at various concentrations whereby a Michaelis-Menten dynamic test for an organic anion transport was carried out.
A Michaelis-Menten dynamic test was carried out for an organic anion transport of OAT4. Changes in the uptake amount of various concentrations of estrone sulfate and dehydroepiandrosterone sulfate by OAT4 were tested whereby concentration dependency of those substrates by OAT4 was investigated. The uptake experiment of labeled estrone sulfate and dehydroepiandrosterone sulfate was carried out according to the above-mentioned method using oocytes into which OAT4 cRNA was injected.

O=C1OC(c2ccc(O)c(S(=O)(=O)O)c2)(c2ccc(O)c(S(=O)(=O)O)c2)c2c(Br)c(Br)c(Br)c(Br)c21 [bromosulfophthalein]
inhibition of transport of ^3H-estrone sulfate by OAT4 (OAT4 [1]): significantly inhibited

CCCCNc1cc(C(=O)O)cc(S(N)(=O)=O)c1Oc1ccccc1 [bumetanide]
inhibition of transport of ^3H-estrone sulfate by OAT4 (OAT4 [1]): significantly inhibited

C[C@H](CCC(=O)O)[C@H]1CC[C@H]2[C@@H]3[C@H](O)C[C@@H]4C[C@H](O)CC[C@]4(C)[C@H]3C[C@H](O)[C@]12C [cholic acid]
inhibition of transport of ^3H-estrone sulfate by OAT4 (OAT4 [1]): significantly inhibited

O=C(O)Cc1ccccc1Nc1c(Cl)cccc1Cl [diclofenac]
inhibition of transport of ^3H-estrone sulfate by OAT4 (OAT4 [1]): significantly inhibited

CC(C)Cc1ccc(C(C)C(=O)O)cc1 (stereo not drawn) [ibuprofen]
inhibition of transport of ^3H-estrone sulfate by OAT4 (OAT4 [1]): significantly inhibited

COc1ccc2c(c1)c(CC(=O)O)c(C)n2C(=O)c1ccc(Cl)cc1 [indomethacin]
inhibition of transport of ^3H-estrone sulfate by OAT4 (OAT4 [1]): significantly inhibited

Nc1cc(N2CCCCC2)nc(N)[n+]1OS(=O)(=O)[O-] [minoxidil sulfate]
interaction with OAT4 (inhibitory test) (OAT4 [2]): all sulfate conjugates except minoxidil sulfate showed an interaction

C[C@@H]1Cc2c(Cl)cc(C(=O)N[C@@H](Cc3ccccc3)C(=O)O)c(O)c2C(=O)O1 [ochratoxin A]
incorporation (uptake) by oocytes expressing OAT4 (OAT4 [3]; Xenopus laevis oocytes injected with OAT4 cRNA, radiolabeled substrate, FIG. 1, listed as 3H-ochratoxin A): incorporated; also recorded: showed incorporation

CC1(C)S[C@@H]2[C@H](NC(=O)Cc3ccccc3)C(=O)N2[C@H]1C(=O)O [penicillin G]
inhibition of transport of ^3H-estrone sulfate by OAT4 (OAT4 [1]): significantly inhibited

CCCN(CCC)S(=O)(=O)c1ccc(C(=O)O)cc1 [probenecid]
inhibition of transport of ^3H-estrone sulfate by OAT4 (OAT4 [1]): significantly inhibited

C[C@H](CCC(=O)NCCS(=O)(=O)O)[C@H]1CC[C@H]2[C@@H]3[C@H](O)C[C@@H]4C[C@H](O)CC[C@]4(C)[C@H]3C[C@H](O)[C@]12C [taurocholic acid]
inhibition of transport of ^3H-estrone sulfate by OAT4 (OAT4 [1]): significantly inhibited

CC[N+](CC)(CC)CC [tetraethylammonium]
inhibition of transport of ^3H-estrone sulfate by OAT4 (OAT4 [1]): did not show an inhibiting action; also recorded: did not show any inhibiting action | incorporation (uptake) by oocytes expressing OAT4 (OAT4 [3]): no incorporation was noted

O=C(O)[C@H]1O[C@@H](Oc2cccc3ccccc23)[C@H](O)[C@@H](O)[C@@H]1O [α-naphthyl-β-glucuronide]
interaction with OAT4 (inhibitory test) (OAT4 [2]): only a weak interaction with OAT4 except α-naphthyl-β-glucuronide

dehydroepiandrosterone sulfate
incorporation (uptake) by oocytes expressing OAT4 (OAT4 [3]; Xenopus laevis oocytes injected with OAT4 cRNA, radiolabeled substrate, FIG. 1, listed as 3H-dehydroepiandrosterone sulfate): incorporated; also recorded: showed incorporation

estrone sulfate
change in transport of estrone sulfate via OAT4 on cation substitution (OAT4 [4]): no change | Km (OAT4 [5]): 1.01 ± 0.15 µM | incorporation (uptake) by oocytes expressing OAT4 (OAT4 [3]; Xenopus laevis oocytes injected with OAT4 cRNA, radiolabeled substrate, FIG. 1, listed as 3H-estrone sulfate): incorporated; also recorded: showed incorporation
